Experimental data published in PubChem BioAssay (NCI).
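48-hour exposure; five concentrations; linearly interpolated endpoints. TGI denotes the concentration required for complete inhibition of growth.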

Experiments:
Test in all cases: NCI anticancer screen, dose series, 48 h
786-0 renal = tested on: 786-0 renal
A498 renal = tested on: A498 renal
A549 NSCLC = tested on: A549 NSCLC
ACHN renal = tested on: ACHN renal
BT-549 breast = tested on: BT-549 breast
CAKI-1 renal = tested on: CAKI-1 renal
CCRF-CEM leukemia = tested on: CCRF-CEM leukemia
COLO 205 colon = tested on: COLO 205 colon
DU-145 prostate = tested on: DU-145 prostate
EKVX NSCLC = tested on: EKVX NSCLC
HCC-2998 colon = tested on: HCC-2998 colon
HCT-116 colon = tested on: HCT-116 colon
HCT-15 colon = tested on: HCT-15 colon
HL-60(TB) leukemia = tested on: HL-60(TB) leukemia
HOP-62 NSCLC = tested on: HOP-62 NSCLC
HOP-92 NSCLC = tested on: HOP-92 NSCLC
HS 578T breast = tested on: HS 578T breast
HT29 colon = tested on: HT29 colon
IGROV1 ovarian = tested on: IGROV1 ovarian
K-562 leukemia = tested on: K-562 leukemia
KM12 colon = tested on: KM12 colon
LOX IMVI melanoma = tested on: LOX IMVI melanoma
M14 melanoma = tested on: M14 melanoma
MALME-3M melanoma = tested on: MALME-3M melanoma
MCF7 breast = tested on: MCF7 breast
MDA-MB-231 breast = tested on: MDA-MB-231 breast
MDA-MB-435 = tested on: MDA-MB-435
MDA-N = tested on: MDA-N
MOLT-4 leukemia = tested on: MOLT-4 leukemia
NCI-H226 lung = tested on: NCI-H226 lung
NCI-H23 lung = tested on: NCI-H23 lung
NCI-H460 lung = tested on: NCI-H460 lung
NCI-H522 lung = tested on: NCI-H522 lung
NCI/ADR-RES ovarian = tested on: NCI/ADR-RES ovarian
OVCAR-3 ovarian = tested on: OVCAR-3 ovarian
OVCAR-4 ovarian = tested on: OVCAR-4 ovarian
OVCAR-5 ovarian = tested on: OVCAR-5 ovarian
OVCAR-8 ovarian = tested on: OVCAR-8 ovarian
PC-3 prostate = tested on: PC-3 prostate
RPMI-8226 leukemia = tested on: RPMI-8226 leukemia
RXF 393 renal = tested on: RXF 393 renal
SF-268 CNS = tested on: SF-268 CNS
SF-295 CNS = tested on: SF-295 CNS
SF-539 CNS = tested on: SF-539 CNS
SK-MEL-2 melanoma = tested on: SK-MEL-2 melanoma
SK-MEL-28 melanoma = tested on: SK-MEL-28 melanoma
SK-MEL-5 melanoma = tested on: SK-MEL-5 melanoma
SK-OV-3 ovarian = tested on: SK-OV-3 ovarian
SN12C renal = tested on: SN12C renal
SNB-19 CNS = tested on: SNB-19 CNS
SNB-75 CNS = tested on: SNB-75 CNS
SR leukemia = tested on: SR leukemia
SW-620 colon = tested on: SW-620 colon
T-47D breast = tested on: T-47D breast
TK-10 renal = tested on: TK-10 renal
U251 CNS = tested on: U251 CNS
UACC-257 melanoma = tested on: UACC-257 melanoma
UACC-62 melanoma = tested on: UACC-62 melanoma
UO-31 renal = tested on: UO-31 renal

## C=C(C(=O)OC)c1cc2ccccc2n1S(=O)(=O)c1ccccc1
786-0 renal
  TGI: > 33.5 µM
A498 renal
  TGI: 5.69 µM
A549 NSCLC
  TGI: 31.9 µM
ACHN renal
  TGI: 5.89 µM
BT-549 breast
  TGI: 5.12 µM
CAKI-1 renal
  TGI: 2.4 µM
CCRF-CEM leukemia
  TGI: 4.18 µM
COLO 205 colon
  TGI: 3.82 µM
DU-145 prostate
  TGI: 8.51 µM
EKVX NSCLC
  TGI: 37.7 µM
HCC-2998 colon
  TGI: 8.35 µM
HCT-116 colon
  TGI: > 34.4 µM
HCT-15 colon
  TGI: 5.37 µM
HL-60(TB) leukemia
  TGI: 10.2 µM
HOP-62 NSCLC
  TGI: 11.1 µM
HOP-92 NSCLC
  TGI: 3.34 µM
HS 578T breast
  TGI: 18.8 µM
HT29 colon
  TGI: 24.9 µM
IGROV1 ovarian
  TGI: 4.21 µM
K-562 leukemia
  TGI: > 100 µM
KM12 colon
  TGI: 5.99 µM
LOX IMVI melanoma
  TGI: 8.21 µM
M14 melanoma
  TGI: 9.55 µM
MALME-3M melanoma
  TGI: 5.72 µM
MCF7 breast
  TGI: 8.11 µM
MDA-MB-231 breast
  TGI: 6.16 µM
MDA-MB-435
  TGI: 7.28 µM
MDA-N
  TGI: 14 µM
MOLT-4 leukemia
  TGI: > 24 µM
NCI-H226 lung
  TGI: 7.22 µM
NCI-H23 lung
  TGI: 11.5 µM
NCI-H460 lung
  TGI: 8.23 µM
NCI-H522 lung
  TGI: 2.54 µM
NCI/ADR-RES ovarian
  TGI: 18.7 µM
OVCAR-3 ovarian
  TGI: 11.4 µM
OVCAR-4 ovarian
  TGI: 11.3 µM
OVCAR-5 ovarian
  TGI: 21.7 µM
OVCAR-8 ovarian
  TGI: 8.42 µM
PC-3 prostate
  TGI: 9.51 µM
RPMI-8226 leukemia
  TGI: 5.43 µM
RXF 393 renal
  TGI: 2.54 µM
SF-268 CNS
  TGI: 8.22 µM
SF-295 CNS
  TGI: 20.8 µM
SF-539 CNS
  TGI: 3.66 µM
SK-MEL-2 melanoma
  TGI: 10.5 µM
SK-MEL-28 melanoma
  TGI: 5.79 µM
SK-MEL-5 melanoma
  TGI: 5.36 µM
SK-OV-3 ovarian
  TGI: 26 µM
SN12C renal
  TGI: 8.18 µM
SNB-19 CNS
  TGI: 34 µM
SNB-75 CNS
  TGI: 14.5 µM
SR leukemia
  TGI: > 100 µM
SW-620 colon
  TGI: 4.63 µM
T-47D breast
  TGI: 5.51 µM
TK-10 renal
  TGI: 3.91 µM
U251 CNS
  TGI: 5.12 µM
UACC-257 melanoma
  TGI: 18.7 µM
UACC-62 melanoma
  TGI: 15 µM
UO-31 renal
  TGI: 9.41 µM

## Clc1nc(Cl)c(CBr)c(Cl)n1
786-0 renal
  TGI: 5.18 µM
A498 renal
  TGI: 32.1 µM
A549 NSCLC
  TGI: 35.2 µM
ACHN renal
  TGI: 15.7 µM
BT-549 breast
  TGI: 4.17 µM
CAKI-1 renal
  TGI: 23.3 µM
CCRF-CEM leukemia
  TGI: 3.41 µM
COLO 205 colon
  TGI: 20.9 µM
DU-145 prostate
  TGI: 30.6 µM
EKVX NSCLC
  TGI: 48.9 µM
HCC-2998 colon
  TGI: 30.8 µM
HCT-116 colon
  TGI: 5.55 µM
HCT-15 colon
  TGI: 7.91 µM
HL-60(TB) leukemia
  TGI: > 100 µM
HOP-62 NSCLC
  TGI: 9.72 µM
HOP-92 NSCLC
  TGI: 5.07 µM
HS 578T breast
  TGI: > 56.8 µM
HT29 colon
  TGI: 32.9 µM
IGROV1 ovarian
  TGI: 14.1 µM
K-562 leukemia
  TGI: > 23.5 µM
KM12 colon
  TGI: 7.87 µM
LOX IMVI melanoma
  TGI: 4.14 µM
M14 melanoma
  TGI: 8.38 µM
MALME-3M melanoma
  TGI: 28.7 µM
MCF7 breast
  TGI: 26 µM
MDA-MB-231 breast
  TGI: 4.04 µM
MDA-MB-435
  TGI: 17 µM
MDA-N
  TGI: 13.2 µM
MOLT-4 leukemia
  TGI: > 23 µM
NCI-H226 lung
  TGI: > 51.7 µM
NCI-H23 lung
  TGI: 31.2 µM
NCI-H460 lung
  TGI: 18.5 µM
NCI-H522 lung
  TGI: 2.92 µM
NCI/ADR-RES ovarian
  TGI: > 43.2 µM
OVCAR-3 ovarian
  TGI: 13.3 µM
OVCAR-4 ovarian
  TGI: 19.7 µM
OVCAR-5 ovarian
  TGI: 15 µM
OVCAR-8 ovarian
  TGI: 10.2 µM
PC-3 prostate
  TGI: 17.7 µM
RPMI-8226 leukemia
  TGI: 4.06 µM
RXF 393 renal
  TGI: 21.4 µM
SF-268 CNS
  TGI: 23.1 µM
SF-295 CNS
  TGI: 16.1 µM
SF-539 CNS
  TGI: 7.76 µM
SK-MEL-2 melanoma
  TGI: 43.1 µM
SK-MEL-28 melanoma
  TGI: 19.9 µM
SK-MEL-5 melanoma
  TGI: 8.46 µM
SK-OV-3 ovarian
  TGI: 29 µM
SN12C renal
  TGI: 6.79 µM
SNB-19 CNS
  TGI: 33.3 µM
SNB-75 CNS
  TGI: 24.8 µM
SR leukemia
  TGI: > 100 µM
SW-620 colon
  TGI: 3.99 µM
T-47D breast
  TGI: 36.1 µM
TK-10 renal
  TGI: 16.9 µM
U251 CNS
  TGI: 14.6 µM
UACC-257 melanoma
  TGI: 33.9 µM
UACC-62 melanoma
  TGI: 11.4 µM
UO-31 renal
  TGI: 9.01 µM
